ChEMBL document CHEMBL1201862, “PubChem BioAssay data set” (2004)
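Exposure lasted 48 hours, with cells grown in 96-well plates and compounds tested at five concentrations. GI50: concentration for 50% inhibition of growth.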 Activity calls are given as the source filed them. Cut-off read from the data, not from the text of the source: active = GI50 up to about 1.1 µM and inactive = higher. Square brackets hold non-standard residues; d marks the D form. Peptide text beside a SMILES is read from it. * marks the point of attachment. ξ: configuration not given here. NMeN = CN[C@@H](CC(N)=O)C(=O)O; NMeV = CN[C@H](C(=O)O)C(C)C; ξNMeV = CNC(C(=O)O)C(C)C; Boc = CC(C)(C)OC(=O)*; ξNMeA = CNC(C)C(=O)O

Legend:
Test in all cases: NCI-60 cell line screen, 48 h
A498 = system: A498
SK-OV-3 = system: SK-OV-3
K562 = system: K562
MDA-MB-435 = system: MDA-MB-435
NCI-H226 = system: NCI-H226
SNB-19 = system: SNB-19
EKVX = system: EKVX
SK-MEL-5 = system: SK-MEL-5
RPMI-8226 = system: RPMI-8226
UO-31 = system: UO-31
UACC-257 = system: UACC-257
SNB-75 = system: SNB-75
OVCAR-3 = system: OVCAR-3
HCT-116 = system: HCT-116
DU-145 = system: DU-145
RXF 393 = system: RXF 393
SK-MEL-2 = system: SK-MEL-2
OVCAR-8 = system: OVCAR-8
HL-60 = system: HL-60
UACC-62 = system: UACC-62

| SMILES | GI50 (A498) | GI50 (SK-OV-3) | GI50 (K562) | GI50 (MDA-MB-435) | GI50 (NCI-H226) | GI50 (SNB-19) | GI50 (EKVX) | GI50 (SK-MEL-5) | GI50 (RPMI-8226) | GI50 (UO-31) | GI50 (UACC-257) | GI50 (SNB-75) | GI50 (OVCAR-3) | GI50 (HCT-116) | GI50 (DU-145) | GI50 (RXF 393) | GI50 (SK-MEL-2) | GI50 (OVCAR-8) | GI50 (HL-60) | GI50 (UACC-62) |
| --- | --- | --- | --- | --- | --- | --- | --- | --- | --- | --- | --- | --- | --- | --- | --- | --- | --- | --- | --- | --- |
| Cc1noc2nnn(-c3ccc(Cl)cc3)c(=O)c12 | 13.5 µM (inactive) | 5.52 µM (inactive) | 1.3 µM (inactive) | 2.95 µM (inactive) | 2.61 µM (inactive) | 13.3 µM (inactive) | 7.11 µM (inactive) | 3.82 µM (inactive) | 0.36 µM (active) | 3.61 µM (inactive) | 7.5 µM (inactive) | 1.1 µM (active) | 2.36 µM (inactive) | 2.89 µM (inactive) | 3.72 µM (inactive) | 0.879 µM (active) | 3.24 µM (inactive) | 2.69 µM (inactive) | 1.39 µM (inactive) | 4.43 µM (inactive) |
| C[n+]1c(/C=C/c2ccc(O)c3ncccc23)[se]c2ccccc21 | 11.2 µM (inactive) | 5.96 µM (inactive) | 5.11 µM (inactive) | 6.34 µM (inactive) | 11.5 µM (inactive) | 4.5 µM (inactive) | 4.25 µM (inactive) | 7.76 µM (inactive) | 5.01 µM (inactive) | 2.71 µM (inactive) | 2.29 µM (inactive) | 12.1 µM (inactive) | 1.57 µM (inactive) | 2.58 µM (inactive) | 4.26 µM (inactive) | 8.67 µM (inactive) | 4.26 µM (inactive) | 2.87 µM (inactive) | 2.55 µM (inactive) | 3.14 µM (inactive) |
| Cc1ccc(-c2cc(-c3cc(-c4ccc(C)cc4C)[nH]n3)[nH]n2)c(C)c1 | 16.6 µM (inactive) | 15.2 µM (inactive) | 15.5 µM (inactive) | 14.7 µM (inactive) | 20.5 µM (inactive) | 18.5 µM (inactive) | 20.7 µM (inactive) | 16.4 µM (inactive) | 2.66 µM (inactive) | 23 µM (inactive) | 12.4 µM (inactive) | 18.3 µM (inactive) | 12.2 µM (inactive) | 16 µM (inactive) | 16.3 µM (inactive) | 14.4 µM (inactive) | 18.2 µM (inactive) | 15 µM (inactive) | 0.027 µM (active) | 24.8 µM (inactive) |
| C=C1C(=O)OC2/C=C(/C)C3(O)OC(C)(CC(OC(=O)C(C)C)C12)CC3OC(C)=O (stereo not given) | 3.96 µM (inactive) | 7.59 µM (inactive) | 2.96 µM (inactive) | 3.96 µM (inactive) | 35.5 µM (inactive) | 15.3 µM (inactive) | 10.6 µM (inactive) | 6.31 µM (inactive) | 4.43 µM (inactive) | 6.17 µM (inactive) | 16.4 µM (inactive) | 47.5 µM (inactive) | 11.5 µM (inactive) | 5.3 µM (inactive) | 8.26 µM (inactive) | 1.47 µM (inactive) | 12 µM (inactive) | 3.27 µM (inactive) | 2.64 µM (inactive) | 11 µM (inactive) |
| CC1(COS(=O)(=O)OCC2(C)COS(=O)(=O)OC2)COS(=O)(=O)OC1 | > 45.8 µM (inactive) | > 100 µM (inactive) | > 26.2 µM (inactive) | > 41.2 µM (inactive) | > 41.5 µM (inactive) | > 60.7 µM (inactive) | > 71.1 µM (inactive) | > 69.2 µM (inactive) | > 20.2 µM (inactive) | > 41.2 µM (inactive) | > 75 µM (inactive) | > 100 µM (inactive) | > 100 µM (inactive) | > 52.6 µM (inactive) | > 36.5 µM (inactive) | > 64.7 µM (inactive) | > 55.6 µM (inactive) | > 48.3 µM (inactive) | > 35.1 µM (inactive) | > 61.8 µM (inactive) |
| C=C(CCCCCCCCC)CC(=O)SCCNC(=O)CCNC(=O)C(O)C(C)(C)COP(=O)(O)OP(=O)(O)OCC1OC(n2cnc3c(N)ncnc32)C(O)C1OP(=O)(O)O (stereo not given) | > 100 µM (inactive) | > 100 µM (inactive) | > 31.6 µM (inactive) | 26.6 µM (inactive) | > 100 µM (inactive) | > 71.6 µM (inactive) | 51.2 µM (inactive) | 31.6 µM (inactive) | 23.8 µM (inactive) | 99.1 µM (inactive) | 48.1 µM (inactive) | 30 µM (inactive) | 77.8 µM (inactive) | 45.5 µM (inactive) | > 100 µM (inactive) | > 71.1 µM (inactive) | 60.8 µM (inactive) | 58.2 µM (inactive) | 36.1 µM (inactive) | 21.1 µM (inactive) |
| COC(=O)C(C)N(C)C(=O)[C@H](CC(N)=O)N(C)C(=O)[C@@H]1CCCN1C(=O)[C@H](C(C)C)N(C)C(=O)C(C(C)C)N(C)C(=O)[C@@H](NC(=O)OC(C)(C)C)C(C)C (stereo not given in full) (Boc-V[ξNMeV][NMeV]P[NMeN][ξNMeA]-OMe) | > 50 µM (inactive) | > 50 µM (inactive) | 43.4 µM (inactive) | > 50 µM (inactive) | > 50 µM (inactive) | > 50 µM (inactive) | > 50 µM (inactive) | 31.7 µM (inactive) | > 50 µM (inactive) | 24.7 µM (inactive) | > 50 µM (inactive) | > 100 µM (inactive) | > 50 µM (inactive) | 30.3 µM (inactive) | > 50 µM (inactive) | > 50 µM (inactive) | > 50 µM (inactive) | > 100 µM (inactive) | 15.1 µM (inactive) | > 50 µM (inactive) |
| NCCCN1CCN(CC(=O)O)CCN(CCCN)CCN(CC(=O)O)CC1 | > 100 µM (inactive) | > 92 µM (inactive) | 6.67 µM (inactive) | > 100 µM (inactive) | > 100 µM (inactive) | > 100 µM (inactive) | > 77.6 µM (inactive) | 4.5 µM (inactive) | 17.4 µM (inactive) | > 34.3 µM (inactive) | > 100 µM (inactive) | > 100 µM (inactive) | > 31.8 µM (inactive) | > 100 µM (inactive) | > 100 µM (inactive) | > 47.9 µM (inactive) | > 33.3 µM (inactive) | > 86.1 µM (inactive) | 15.3 µM (inactive) | > 56.9 µM (inactive) |
| CC(C)=C1C(=O)C[C@]2(C)C[C@H]3/C(=C(/C)CCC12)CC[C@@]3(C)O (stereo not given in full) | > 50 µM (inactive) | > 50 µM (inactive) | 22.2 µM (inactive) | > 50 µM (inactive) | > 50 µM (inactive) | > 50 µM (inactive) | > 50 µM (inactive) | 40.4 µM (inactive) | > 50 µM (inactive) | > 50 µM (inactive) | > 50 µM (inactive) | 19.1 µM (inactive) | 37.7 µM (inactive) | 46.2 µM (inactive) | > 50 µM (inactive) | 40.9 µM (inactive) | > 50 µM (inactive) | > 50 µM (inactive) | 11.3 µM (inactive) | > 50 µM (inactive) |
| COC1=CC(=O)C(C2(OC(C)C)OC(=O)C(Cl)=C2Cl)=CC1=O (stereo not given) | > 100 µM (inactive) | > 100 µM (inactive) | < 0.01 µM (active) | 41.3 µM (inactive) | > 100 µM (inactive) | > 100 µM (inactive) | > 100 µM (inactive) | > 100 µM (inactive) | > 100 µM (inactive) | 74.5 µM (inactive) | > 100 µM (inactive) | > 100 µM (inactive) | > 100 µM (inactive) | > 100 µM (inactive) | > 100 µM (inactive) | > 100 µM (inactive) | 29.4 µM (inactive) | 24.9 µM (inactive) | < 0.01 µM (active) | > 100 µM (inactive) |
| Cc1ccccc1C1CC(=O)CC(c2ccccc2C)C12C(=O)NC(=O)NC2=O (stereo not given) | > 100 µM (inactive) | > 100 µM (inactive) | > 100 µM (inactive) | > 77.8 µM (inactive) | > 100 µM (inactive) | > 100 µM (inactive) | > 100 µM (inactive) | > 100 µM (inactive) | 26.9 µM (inactive) | > 100 µM (inactive) | > 100 µM (inactive) | > 100 µM (inactive) | > 100 µM (inactive) | > 100 µM (inactive) | > 100 µM (inactive) | > 100 µM (inactive) | > 100 µM (inactive) | > 100 µM (inactive) | 55 µM (inactive) | > 100 µM (inactive) |
| Cn1c(=O)cc(NNc2ccc(Cl)c(Cl)c2)[nH]c1=O | 36.8 µM (inactive) | 20.8 µM (inactive) | 2.04 µM (inactive) | 3.31 µM (inactive) | 19.5 µM (inactive) | 32.1 µM (inactive) | 10 µM (inactive) | 5.31 µM (inactive) | > 10 µM (inactive) | 12.1 µM (inactive) | 14.9 µM (inactive) | 23 µM (inactive) | 15.5 µM (inactive) | 7.19 µM (inactive) | 17.5 µM (inactive) | 22.9 µM (inactive) | 16.4 µM (inactive) | 13.6 µM (inactive) | 8 µM (inactive) | 1.71 µM (inactive) |
| Cc1c(-c2ccccc2)c(C#N)c2nnn(-c3ccccc3)c(=O)n12 | 65.8 µM (inactive) | > 100 µM (inactive) | 40.6 µM (inactive) | > 100 µM (inactive) | > 100 µM (inactive) | > 100 µM (inactive) | > 100 µM (inactive) | 30.9 µM (inactive) | > 100 µM (inactive) | > 100 µM (inactive) | > 100 µM (inactive) | > 100 µM (inactive) | 85.1 µM (inactive) | > 100 µM (inactive) | > 100 µM (inactive) | 81.7 µM (inactive) | > 100 µM (inactive) | > 100 µM (inactive) | 84.1 µM (inactive) | 92.5 µM (inactive) |
